Patent US20240002424A1, “HEXOSAMINE COMPOUNDS AND METHODS THEREOF” (National Institute of Immunology, priority 2021, published 2024)
Entries after “also recorded” stand apart in the source; their conditions may differ.

How the values were obtained:
Format in all cases: cell-based, human
HL-60 cells [1] = experiment: SNA lectin binding on intact cells by flow cytometry; settings: 50 μM, 24 h
HL-60 cells [2] = experiment: Far-western blot of total lysates with biotinylated MAL-II; settings: HL-60 lysates; 50 μM, 72 h
Description: After 72 h, cells were harvested and lyzed in RIPA buffer containing PIC. Protein concentration in the soluble fraction was estimated using Bradford assay, subjected to 10% SDS-PAGE, blotted onto nitrocellulose membranes (constant current 250 mA, 3 h, 4° C.). Membranes were blocked using 2% w/v gelatin (5.0 mL) in 0.1% PBS-T at room temperature. After 1h, membranes were incubated with either bMAL-II (1:2000, stock conc. 1.0 mg/mL) or bSNA (1:5000, stock conc. 2.0 mg/mL) in 0.1% PBS-T (5.0 mL) at room temperature. After 1 h, membranes were washed using 0.1% PBS-T (6×5.0 mL, 5.0 min), followed by incubation with HRPconjugated avidin (1:50000, stock conc. 2.0 mg/mL) in 0.1% PBS-T (5.0 mL). After 30 min, membranes were washed using 0.1% PBS-T (6×5.0 mL, 5.0 min). Blots were developed using enhanced chemiluminescence substrate and photographic films. Blots using anti-β-actin (as mentioned above) were performed in parallel as loading controls. At least two independent replicate experiments were performed.

HL-60 cells [3] = experiment: Anti-CLA (HECA452) antibody binding by flow cytometry; settings: 50 μM, 24 h
Description: Effect of HexNAc analogues on the expression of cutaneous lymphocyte antigen (CLA/HECA452) epitopes: HL-60 cells (3.0×10^5 cells/mL in 2.5 mL complete medium in 6-well plates) were treated with D, 1a, 1b, or 1d (50 mM), including untreated controls. After 24 h cells were harvested, washed in PBS (3×0.5 mL), aliquoted to 5.0×10^5 cells per sample, and incubated with rat anti-human CLA (HECA452) antibody (5.0 mg/mL) in PBS (50 mL) at 4° C. After 1.0 h, cells were washed with PBS (2×0.5 mL) and stained with AlexaFluor488-conjugated anti-rat IgM (10 mg/mL) in PBS (50 mL) at 4° C. After 1.0 h, cells were washed with PBS (2×0.5 mL), resuspended in PBS (0.2 mL) and treated with PI (2.5 mg/mL). Additionally control samples of cells treated with (i) isotype antibody followed by secondary antibody and (ii) only secondary antibody were prepared. Cells were gated on PI-negative population and analyzed by flow cytometry as given above. Two replicate samples were analyzed for each condition and each sample was counted twice by flow cytometry as mentioned above.

HL-60 cells [4] = experiment: Western blot of total lysates for sLeX (CSLEX1) epitopes; settings: HL-60 total lysates; 50 μM, 72 h
Description: Effect of ManNAc analogues on expression of CD15s epitopes: HL-60 cells (3.0×10^5 cells/mL in 10 mL complete medium in 10 cm diameter petri dishes) were incubated with D, 1a, 1b, 1d, 1e, 1f, or 1g (50 mM), along with untreated (U) controls. After 72 h, cells were harvested, washed with PBS (3×5.0 mL), and lysed in RIPA buffer (10^7 cells in […]), containing protease inhibitor cocktail (PIC, 1:100). Protein concentration of the soluble fraction was estimated using the Bradford assay. Proteins from total lysates were resolved by 7.5% SDS-PAGE and blotted onto nitrocellulose membrane (constant current of 250 mA for 3.0 h at 4° C.). Membranes were blocked using non-fat milk (NFM) (5.0% w/v) in PBS and incubated with primary antibodies (5.0 mL PBS containing 5.0% NFM) overnight at 4° C. Membranes were washed with 0.1% PBS-T (0.1% v/v tween-20 in PBS; 3×5.0 mL, five min each at room temperature) followed by incubation with appropriate fluorophore or horse radish peroxidase (HRP) conjugated secondary antibodies for 1.0 h at room temperature. Membranes were washed with 0.1% PBS-T (3×5.0 mL, five min each) and then either directly scanned using Amersham Typhoon fluorescence scanner or developed on photographic films after treatment with enhanced chemiluminescence reagents. At least two independent replicate experiments were performed for all the blots.
The primary and secondary antibodies employed, along with dilution and stock concentration, are given below: Primary antibodies: Anti-CD15s (CSLEX1; IgM, dilution 1:5000; stock concentration 0.5 mg/mL) Anti-CLA (HECA452; IgM, dilution 1:1000, stock concentration 0.5 mg/mL) […] (AC15, IgG, dilution 1:20000, stock concentration 2.2 mg/mL); and Secondary Antibodies: AlexaFluor488-conjugated anti-mouse IgM (1:10000, stock concentration 2.0 mg/mL) AlexaFluor488-conjugated anti-rat IgM (1:10000, stock concentration 0.5 mg/mL) HRP-conjugated anti-mouse IgG (1:10000, stock concentration 0.8 mg/mL) Cy5-conjugated donkey anti-mouse IgG (1:10000, stock concentration 1.4 mg/mL) AlexaFluorplus488-conjugated anti-mouse IgG (1:10000, stock conc. 2.0 mg/mL).

HL-60 cells [5] = experiment: NeuAz expression by SPAAC with DBCO-Cy5 and flow cytometry, competition with 1c; settings: 50 μM with 1c 50 μM, 24 h
Description: Estimation of NeuAz expression by 1c in the presence of peracetylated ManNAc analogues: Jurkat cells (3.0×10^5 cells/mL in 3.0 mL per well in 6-well plates) were incubated with (i) D, (ii) 1a, 1b, 1c, or 1d alone (50 mM) or (iii) 1a, 1b, or 1d (50 mM) in combination with 1c (50 mM). After 24 h, cells were harvested, washed using FSB, aliquoted to 5.0×10^5 cells per sample, and processed as mentioned above for estimation of NeuAz expression using DBCO-Cy5 ([…]). Experiments using HL-60 cells were performed using the same procedure.
Having confirmed metabolic acceptability in Jurkat cells, the compounds were tested on HL-60 (human acute myeloid leukemia) cells which are a reliable model for neutrophil adhesion. The effect on competitive suppression of NeuAz expression was studied using 1c as a reporter. HL-60 cells were treated with 1c either alone (50 μM) or in combination with ManNAc analogues (50 μM), including the straight chain derivatives, for 24 h followed by DBCO-Cy5 ligation. […] The decreasing ability of linear alkyl moieties (1d-1g), as a function of chain length, for suppression of NeuAz expression is in contrast to the cycloalkyl moieties. […] Similarly, 1a induced a reduction of 40% compared to only a 15% reduction by 1f.

Jurkat cells = experiment: NeuAz expression on the cell surface by SPAAC with DBCO-Cy5 and flow cytometry, competition with Ac4ManNAz (1c); settings: analogue 10 μM first, 1c 50 μM added at 12 h, estimation at 48 h

SMILES: CC(=O)OC[C@H]1O[C@H](OC(C)=O)[C@@H](NC(=O)C2CC2)[C@@H](OC(C)=O)[C@@H]1OC(C)=O [Compound 1a, 1,3,4,6-tetra-O-acetyl-2-cyclopropanoylamino-2-deoxy-α-D-mannopyranose]
- SNA binding on intact cells compared to untreated cells (HL-60 cells [1]): no significant differences
- MAL-II epitopes in lectin blot (HL-60 cells [2]): slight increase
- decrease in HECA-452 binding compared to untreated cells (HL-60 cells [3]): 40%
- sLeX (CSLEX1) bands between 150-100 kDa in western blot (HL-60 cells [4]): faint increase
- NeuAz expression with respect to 1c alone (100%) (HL-60 cells [5]): 60%
- reduction of NeuAz expression with respect to controls (HL-60 cells [5]): 40%
- suppression of NeuAz expression, delayed addition of 1c (Jurkat cells): 30%

SMILES: CC(=O)OC[C@H]1OC(OC(C)=O)[C@@H](NC(=O)C2CCC2)[C@@H](OC(C)=O)[C@@H]1OC(C)=O (stereo partly drawn) [Compound 1b, (3S,4R,5S,6R)-6-(acetoxymethyl)-3-(cyclobutanecarboxamido)tetrahydro-2H-pyran-2,4,5-triyl triacetate]
- SNA binding on intact cells compared to untreated cells (HL-60 cells [1]): no significant differences
- MAL-II epitopes in lectin blot (HL-60 cells [2]): slight increase
- decrease in HECA-452 binding compared to untreated cells (HL-60 cells [3]): 40%
- sLeX (CSLEX1) bands between 150-100 kDa in western blot (HL-60 cells [4]): Robust increase
- NeuAz expression with respect to 1c alone (100%) (HL-60 cells [5]): 55%
- reduction of NeuAz expression with respect to controls (HL-60 cells [5]): 45%
- suppression of NeuAz expression, delayed addition of 1c (Jurkat cells): 50%

SMILES: CC(=O)NC1C(OC(C)=O)OC(COC(C)=O)[C@@H](OC(C)=O)[C@@H]1OC(C)=O (stereo partly drawn) [Compound 1d, 1,3,4,6-tetra-O-acetyl-2-acetylamino-2-deoxy-α/β-D-mannopyranose]
- SNA binding on intact cells compared to untreated cells (HL-60 cells [1]): no significant differences
- MAL-II epitopes in lectin blot (HL-60 cells [2]): below detection limit
- change in HECA-452 binding (in words) (HL-60 cells [3]): moderate increase
- sLeX (CSLEX1) bands between 150-100 kDa in western blot (HL-60 cells [4]): negative for sLeX epitopes; also recorded: not detectable
- NeuAz expression with respect to 1c alone (100%) (HL-60 cells [5]): 40%
- suppression of NeuAz expression (in words) (HL-60 cells [5]): Maximum suppression
